# Results as given in US20020147136A1, “Compounds for targeting endothelial cells, compositions containing the same and methods for their use” (priority 2000, published 2002).
# Residues, ends and D or L forms follow the SMILES beside them. No end group written: not given here.
# Experiments:
# [1] = system: HAEC; assay: Inhibition of TKPPR-bubble binding to HAEC in static culture by competing agents; format: cell-based, human; conditions: for half-maximal inhibition of bubble binding / IC50 / Bubbles Bound: 5% TKPPR bubbles; for IC50: read-out: half-maximal inhibition of bubble binding; for inhibition of bubble binding to HAEC: Example 12; for ability to block binding of BRU-114 microbubbles to HAEC: up to 200 microM
# Method: Vials of the compositions of example 5 and of example 6 may be reconstituted with 5 mL of sterile saline, injected using a 20-guage 1.5 inch needle. Bubbles may be then formed within the vials by shaking by hand vigorously for 30 seconds. 1 to 5 mL of the bubble formulation may be removed from each vial and diluted with 3 volumes of D-PBS (without calcium or magnesium) within 1 hour of use.
# Chamber slides containing confluent HAEC may be drained of culture medium, which was immediately replaced with one of the final bubble solutions prepared above. The wells may be slightly overfilled such that the liquid meniscus protrudes slightly above the plastic well-forming scaffold of the slide. Bubble solutions may be only added to alternate wells to minimize liquid cross-talk. The wells may be sealed with a piece of Parafilm and the slide incubated 20 minutes, inverted (according to Klibanov A. L., Advanced drug Delivery Reviews, 37, 1999, 139-157) to allow the bubbles to rise and make contact with the cells, after which the solutions may be poured off. Weakly associated bubbles may be removed by washing each well twice with 0.5 mL of D-PBS, swirling gently each time before pouring off. Additional D-PBS (0.5 mL) may be added to wells after the washes to keep the cells submerged until microscopic evaluation.
# Composition I of Example 5 was repeated exactly as described except that 0.5 mg DPPE-GTKPPR was added (instead of 2.5 mg) yielding compositions with 1% DPPE-GTKPPR. Vials of this composition as well as that of composition I ofExample 5 (5% DPPE-GTKPPR) were reconstituted with 5 mL of sterile saline, injected using a 20-guage 1.5 inch needle. Bubbles were then formed within the vials by shaking by hand vigorously for 30 seconds. 1 to 5 mL of the bubble formulation was removed from each vial and diluted with 3 volumes of D-PBS (without calcium or magnesium) within 1 hour of use.
# Chamber slides containing confluent HAEC were drained of culture medium, which was immediately replaced with one of the final bubble solutions prepared above. The wells were slightly overfilled such that the liquid meniscus protruded slightly above the plastic well-forming scaffold of the slide. Bubble solutions were only added to alternate wells to minimize liquid cross-talk. The wells were sealed with a piece of Parafilm and the slide was incubated 20 minutes, inverted to allow the bubbles to rise and make contact with the cells, after which the solutions were poured off. Weakly associated bubbles were removed by washing each well twice with 0.5 mL of D-PBS, swirling gently each time pouring off. Additional D-PBS (0.5 mL) was added to wells after the washes to keep the cells submerged until microscopic evaluation.
# Assays were performed as described for Example 7 using microbubble compositions containing 2% BRU-114 (Composition I of Example 5) as a % of total phospholipid in the composition.
# Compositions were reconstituted and assays were performed as described in Example 7 using microbubble compositions containing 1% BRU-114 (Composition I of Example 5) as a % of total phospholipid in the composition.
# Assays were performed as described for Example 7 using microbubble compositions containing 2% BRU-114 (as a % of total phospholipid in the composition).
# [2] = system: Neuropilin-1/Fc; assay: Fluorescence polarization binding to NP-1/Fc; conditions: for binding to NP-1/Fc by FP: Oregon Green-labeled ligand
# Method: The ability of various compositions comprising TKPPR monomers or multimers to bind to NP-1/Fc and KDR-Fc was evaluated using FP. The binding studies of various Oregon Green (OG)-labeled compounds comprising TKPPR monomers or multimers and related compounds with Neuropilin-1/Fc, and KDR-Fc (both from R&D Systems), were carried out at 37° C. in D-PBS buffer (pH 7.4). FP values (mP) for each substrate was measured by titrating the ligand (5-20 nM) with receptor protein using a Jolley Research and Consulting FPM-1 fluorescence Polarization analyzer. In each of these experiments the observed polarization values were plotted against receptor concentration. The mP values for 100% binding of tracer labeled ligand to receptor protein was calculated using the software provided by the vendor.
# [3] = system: NP-1/Fc; assay: Inhibition of 125I-VEGF165 binding to NP-1/Fc
# Method: The ability of various compositions comprising TKPPR monomers or multimers to inhibit ^125I-VEGF binding to NP-1 was evaluated using NP-1/Fc. Competitive binding assays with microtiter plates coated with NP-1/Fc (R&D sytems) were performed using ^125I-VEGF165 as radioligand (Amersham Pharmacia Biotech Cat. No. IM274, Specific Activity: 1000-2500 Ci/mmol). […] Plates (Nunc MaxiSorp white opaque Microtiter plate [C-bottom, 437796]) were coated by incubating the wells with 75 µl of a solution containing 3 μlg/mL NP-1/Fc in D-PBS/0.1% NaAzide overnight at 4° C. after covering with sealing tape (Dynex, VWR Cat. No. 62402-931). […] All points were derived from triplicate wells, and for each set of replicates in NP-1/Fc-coated wells, a companion set in the absence of the receptor was included. For competitive binding, a series of unlabelled competitor concentrations were prepared in a 250 pM solution of ^1251-VEGF165 in assay buffer Solutions were added to 1.2 ml polypropylene tubes conforming to the microtiter format (Costar Cat. No. 29442-602), and transferred from these tubes to microtiter wells, without further dilution, using a multichannel pipettor. After addition of the appropriate solutions, microtiter plates were incubated at 4° C. for 2 hours. […] The plates were blotted dry and 25 μl deionized water and 100 μl scintillation fluid (Optiphase SuperMix, Wallac) were added to each well. Plates were agitated using a Plate Shaker (Hyperion, Cat. No. 4030-100F) for 3-5 minutes and were then counted using a Microplate Scintillation Counter (Wallac Microbeta Trilux) A set of serially diluted 125I-VEGF165 standard wells ranging from 200 to 0.04 pM were included with each experiment to aid in quantification of the amount of radiolabel bound.
# [4] = competitor 100 ng/ml, 2% BRU-114 bubbles
# [5] = competitor 200 ng/ml, 2% BRU-114 bubbles
# [6] = competitor 50 microM, 2% BRU-114 bubbles
# [7] = competitor 100 microM, 2% BRU-114 bubbles
# [8] = competitor 200 microM, 2% BRU-114 bubbles
molecule,measurement,setting,value
VEGF165: vascular endothelial growth factor isoform containing 165 amino acids,ability to inhibit binding of BRU-114 microbubbles to HAEC,[1]; 2% BRU-114 bubbles,potently blocked
same,half-maximal inhibition of bubble binding,[1],about 12.5 ng/mL
same,IC50,[1],~0.3 nM
same,inhibition of bubble binding to HAEC,[1],potently may inhibit
same,Bubbles Bound,[1]; VEGF added 6.25 ng/ml,1184 ± 172
same,Bubbles Bound,[1]; VEGF added 12.5 ng/ml,599 ± 6
same,Bubbles Bound,[1]; VEGF added 25 ng/ml,342 ± 22
same,Bubbles Bound,[1]; VEGF added 50 ng/ml,226 ± 39
same,Bubbles Bound,[1]; VEGF added 75 ng/ml,190 ± 45
same,Bubbles Bound (average of duplicate),"[1]; competitor 25 ng/ml, 2% BRU-114 bubbles",144
same,Bubbles Bound (average of duplicate),[1]; [4],94
same,Bubbles Bound (average of duplicate),[1]; [5],70
Thr-Lys-Pro-Pro-Arg-Lys(Arg-Pro-Pro-Lys-Thr)-Gly-TTDA-OG [BRU-337],binding characteristics compared to BRU-326,[2],did not exhibit the same binding characteristics
KDR/Fc: soluble human KDR/Fc chimera (R&D Sytems Inc.),half-maximal inhibition of bubble binding,[1],about 450 ng/mL
same,IC50,[1],~1.4 nM
same,inhibition of bubble binding to HAEC,[1],inhibit potently
same,Bubbles Bound,[1]; KDR/Fc added 125 ng/ml,1030 ± 12
same,Bubbles Bound,[1]; KDR/Fc added 250 ng/ml,786 ± 76
same,Bubbles Bound,[1]; KDR/Fc added 500 ng/ml,342 ± 78
same,Bubbles Bound,[1]; KDR/Fc added 1000 ng/ml,75 ± 5
same,Bubbles Bound,[1]; KDR/Fc added 2500 ng/ml,84 ± 3
BRU-170: TPATSVRG (negative control) [reference compound],inhibition of 125I-VEGF165 binding to NP-1 Fc,[3]; at 1 μM,no inhibition
CC(O)C1/N=C(/O)C(N)CSSCC(C(=O)O)/N=C(/O)C(CCCNC(=N)N)/N=C(\O)C2CCCN2C(=O)C2CCCN2C(=O)C(CCCCN)/N=C\1O (stereo not drawn) [BRU-306],ability to block binding of BRU-114 microbubbles to HAEC,[1]; 2% BRU-114 bubbles,no ability to block
same,Bubbles Bound % of control binding,[1]; [6],97%
same,Bubbles Bound % of control binding,[1]; [7],71%
same,Bubbles Bound % of control binding,[1]; [8],99%
"C[C@@H](O)[C@H](N)C(=O)N[C@@H](CCCCN)C(=O)N1CCC[C@H]1C(=O)N[C@@H](CCCNC(=N)N)C(=O)O [TKPR, L-threonyl-L-lysyl-L-prolyl-L-Arginine, reference compound] (H-TKPR-OH)",fold less potent a binding inhibitor than TKPPR,[3],5 to 6 fold
same,IC50,"[3]; 250 pM 125I-VEGF165, 4° C., 2 hours",280000 nM
same,potency at inhibiting BRU-114 microbubble binding relative to TKPPR (BRU-95),[1]; 1% BRU-114 bubbles,less potent than TKPPR
same,inhibition of TKPPR-bubble binding to HAEC,"[1]; Example 7, compared with free TKPPR",less effectively than free TKPPR
same,Bubbles Bound (average of duplicate),"[1]; competitor 5 microM, 1% BRU-114 bubbles",1152
same,Bubbles Bound (average of duplicate),"[1]; competitor 10 microM, 1% BRU-114 bubbles",976
same,Bubbles Bound (average of duplicate),"[1]; competitor 25 microM, 1% BRU-114 bubbles",1171
same,Bubbles Bound (average of duplicate),"[1]; competitor 50 microM, 1% BRU-114 bubbles",904
same,Bubbles Bound (average of duplicate),"[1]; competitor 100 microM, 1% BRU-114 bubbles",556
CC(O)C(NC(=O)C(N)CS)C(=O)NC(CCCCN)C(=O)N1CCCC1C(=O)N1CCCC1C(=O)NC(CCCNC(=N)N)C(=O)NC(CS)C(=O)O (stereo not drawn) [BRU-305] (H-CTKPPRC-OH; configuration not given here),ability to block binding of BRU-114 microbubbles to HAEC,[1]; 2% BRU-114 bubbles,no ability to block
same,Bubbles Bound % of control binding,[1]; [6],97%
same,Bubbles Bound % of control binding,[1]; [7],78%
same,Bubbles Bound % of control binding,[1]; [8],88%
"BRU-317: TKPPR dimer labeled with Oregon Green (also: dimer, labeled with Oregon Green)",fold more potent than the monomer,[3],10 to 14 fold
same,binding to NP-1/Fc by FP,[2],barely detectable
TKPPR-K(RPPKT)-K[K(RPPKT)TKPPR]-G-Z-OG [BRU-346],binding characteristics compared to BRU-326,[2],did not exhibit the same binding characteristics
same,binding to NP-1/Fc by FP,[2],negative
"VEGF121: VEGF isoform of 121 amino acids, lacks the heparin-binding domain (protein) APMAEGGGQNHHEVVKFMDVYQRSYCHPIETLVDIFQEYPDEIEYIFKPSCVPLMRCGGCCNDEGLECVPTEESNITMQIMRIKPHQGQHIGEMSFLQHNKCECRPKKDRARQEKCDKPRR",effect on BRU-326 binding to NP-1,[2]; at up to 250nM,no effect
same,ability to inhibit binding of BRU-114 microbubbles to HAEC,[1]; 2% BRU-114 bubbles,little if any ability to inhibit
same,Bubbles Bound (average of duplicate),[1]; [4],878
same,Bubbles Bound (average of duplicate),[1]; [5],849
same,Bubbles Bound (average of duplicate),"[1]; competitor 400 ng/ml, 2% BRU-114 bubbles",778
